Earlier results in US20190381137A1, “BOLAAMPHIPHILIC COMPOUNDS, COMPOSITIONS AND USES THEREOF” (Lauren Sciences LLC, priority 2012, published 2019).

Settings: conjugate acid (protonated form) of the imidazole side chain

For `N[C@@H](Cc1c[nH]cn1)C(=O)O` [histidine], the pKa is listed as “approximately 6.0”.
